Results from the NIST ThermoML archive (doi:10.1021/je060416d).

Conditions: Liquid, Vibrating wire viscometry

C1CCCC1 [cyclopentane]
viscosity [mPa·s]
Conditions | 273.15 K | 293.15 K | 298.15 K | 313.15 K | 333.15 K | 353.15 K
100 kPa | 0.5628 | 0.4413 | 0.4167 | – | – | –
10000 kPa | 0.6148 | 0.4827 | 0.4583 | 0.392 | 0.3247 | –
15000 kPa | – | – | – | – | – | 0.2868
30000 kPa | 0.7203 | 0.5708 | 0.5409 | 0.4646 | 0.3882 | 0.3291
40000 kPa | 0.7767 | 0.6167 | 0.5846 | – | – | –
45000 kPa | – | – | – | 0.5222 | 0.4364 | 0.3727
